Drawing on patent US9573913B2, “Cathepsin cysteine protease inhibitors” (Merck Sharp & Dohme Corp., priority 2013, dated 2017), this text covers IC50 for 17 compounds.

In one experiment the target is human cathepsin K (UniProt P43236). The experiment can be described thus: Cathepsin K Assay (hrbCat K). It counts as biochemical. To be noted: Z-Leu-Arg-AMC substrate, pH 5.5, 15 min preincubation; read-out: hrbCat K (IP (nM)). The method, boiled down: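 Human cathepsin K (0.4 nM) was preincubated 15 min at room temperature with compound in 50 mM MES pH 5.5, 2.5 mM EDTA, 2.5 mM DTT and 10% DMSO. Inhibition was fitted to a dose-response model.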

The target in the next experiment is T1, human cathepsin F (Homo sapiens, UniProt Q9UBX1).
T1 sequence (Q9UBX1 271-484): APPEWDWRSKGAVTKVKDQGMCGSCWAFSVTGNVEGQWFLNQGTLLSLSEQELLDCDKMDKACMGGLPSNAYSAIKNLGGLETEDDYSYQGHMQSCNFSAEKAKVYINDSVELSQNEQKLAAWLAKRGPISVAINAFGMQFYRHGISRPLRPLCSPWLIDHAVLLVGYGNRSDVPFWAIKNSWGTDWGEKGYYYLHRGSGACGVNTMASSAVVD
The experiment can be described thus: Cathepsin F assay (hCat F). It counts as biochemical. As to conditions: Z-Phe-Arg-AMC substrate, pH 5.5, 15 min preincubation; read-out: hCat F (IP (nM)). The method, boiled down: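 AMC release from Z-Phe-Arg-AMC, added at 8 μM, was monitored fluorometrically (360/460 nm) for 20 min after 10 nM enzyme and compound had been preincubated 15 min at room temperature. Buffer: MES 50 mM pH 5.5, EDTA and DTT 2.5 mM each, 10% DMSO. Compound DMSO dilutions spanned 500–0.025 μM (3-fold). Dose-response fitting gave % inhibition.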

On to `N#CC1(NC(=O)[C@@H]2CCCC[C@H]2c2nc(C3CCCOC3)sc2-c2ccc(N3CCS(=O)(=O)CC3)cc2)CC1` (stereo partly drawn) [Example 146, (1R,2R)-N-(1-cyanocyclopropyl)-2-(5-(4-(1,1-dioxidothiomorpho-lino)phenyl)-2-(tetrahydro-2H-pyran-3-yl)thiazol-4-yl)cyclohexane-carboxamide], for which the IC50 at human cathepsin K is 4.6 nM; at human cathepsin F it was 1000 nM.
The matching figures for `Cc1nc([C@@H]2CC[C@H](F)C[C@H]2C(=O)N[C@@H](C)C#N)c(-c2ccc(N3CCS(=O)(=O)CC3)cc2)s1` [Example 206, (1R,2R,5S)-N-((S)-1-cyanoethyl)-2-(5-(4-(1,1-dioxidothiomorpho-lino)phenyl)-2-methylthiazol-4-yl)-5-fluorocyclohexane-carboxamide]: 5 nM and 9010 nM.
For `N#CC1(NC(=O)[C@@H]2CCCC[C@H]2c2nc(-c3ccccc3F)sc2-c2ccc(N3CCS(=O)(=O)CC3)cc2)CC1` [Example 55, (1R,2R)-N-(1-cyanocyclopropyl)-2-(5-(4-(1,1-dioxidothiomorpho-lino)phenyl)-2-(2-fluorophenyl)thiazol-4-yl)cyclohexane-carboxamide] the same measures were 2.5 nM and 1120 nM.
`Cc1nc([C@@H]2CC[C@H](F)C[C@H]2C(=O)N[C@H](C#N)C(C)C)c(-c2ccc(N3CCS(=O)(=O)CC3)cc2)s1` [Example 210, (1R,2R,5S)-N-((S)-1-cyano-2-methylpropyl)-2-(5-(4-(1,1-dioxidothiomorpho-lino)phenyl)-2-methylthiazol-4-yl)-5-fluorocyclohexane-carboxamide]: the values for the IC50 on human cathepsin K and at human cathepsin F were 11.4 nM and 9900 nM, respectively.
With `N#CC1(NC(=O)[C@@H]2CCCC[C@H]2c2nc(N3CCCC(F)(F)C3)sc2-c2ccc(N3CCS(=O)(=O)CC3)cc2)CC1` [Example 106, (1R,2R)-N-(1-cyanocyclopropyl)-2-(2-(3,3-difluoropiperidin-1-yl)-5-(4-(1,1-dioxidothiomorpho-lino)phenyl)thiazol-4-yl)cyclohexane-carboxamide], the results for the IC50 at human cathepsin K and at human cathepsin F were 2.9 nM and at least 10000 nM, respectively.
On to `N#CC1(NC(=O)[C@@H]2CCCC[C@H]2c2nc(N3CCCCC3)sc2-c2ccc(N3CCS(=O)(=O)CC3)cc2)CC1` [Example 89, (1R,2R)-N-(1-cyanocyclopropyl)-2-(5-(4-(1,1-dioxidothiomorpho-lino)phenyl)-2-(piperidin-1-yl)thiazol-4-yl)cyclohexane-carboxamide], for which the IC50 is 3 nM on human cathepsin K and 1000 nM on human cathepsin F.
In the case of `Cc1nc([C@@H]2CCCC[C@H]2C(=O)NCC#N)c(-c2ccc(N3CCS(=O)(=O)CC3)cc2)o1` [Example 164, (1R,2R)-N-(cyanomethyl)-2-(5-(4-(1,1-dioxidothiomorpho-lino)phenyl)-2-methyloxazol-4-yl)cyclohexane-carboxamide], the IC50 was 13.8 nM on human cathepsin K and at least 10000 nM at human cathepsin F.
For `N#CC1(NC(=O)[C@@H]2CCCC[C@H]2c2nc(C3CCOCC3)sc2-c2ccc(N3CCS(=O)(=O)CC3)cc2)CC1` [Example 11, (1R,2R)-N-(1-Cyanocyclopropyl)-2-(5-(4-(1,1-dioxidothiomorpholino)phenyl)-2-(tetrahydro-2H-pyran-4-yl)thiazol-4-yl)cyclohexanecarboxamide] the same measures were 3 nM and at least 10000 nM.
As for `Cc1nc(-c2nc([C@@H]3CCCC[C@H]3C(=O)NC3(C#N)CC3)c(-c3ccc(N4CCS(=O)(=O)CC4)cc3)s2)cs1` [Example 91, (1R,2R)-N-(1-cyanocyclopropyl)-2-(5-(4-(1,1-dioxidothiomorpho-lino)phenyl)-2′-methyl-[2,4′-bithiazol]-4-yl)cyclohexane-carboxamide], the IC50 at human cathepsin K was found to be 3.3 nM; at human cathepsin F it was 1110 nM.
The matching figures for `N#CC1(NC(=O)[C@@H]2CCCC[C@H]2c2nc(-c3cnc(C(F)(F)F)nc3)sc2-c2ccc(N3CCS(=O)(=O)CC3)cc2)CC1` [Example 98, (1R,2R)-N-(1-cyanocyclopropyl)-2-(5-(4-(1,1-dioxidothiomorpho-lino)phenyl)-2-(2-(trifluoromethyl)pyrimidin-5-yl)thiazol-4-yl)cyclohexane-carboxamide]: 0.6 nM and 1600 nM.
For `N#CC1(NC(=O)[C@@H]2CCCC[C@H]2c2nc(-c3ccc(F)cn3)sc2-c2ccc(N3CCS(=N)(=O)CC3)cc2)CC1` [Example 136, (1R,2R)-N-(1-cyanocyclopropyl)-2-(2-(5-fluoropyridin-2-yl)-5-(4-(1-imino-1-oxidothiomorpholino)phenyl)thiazol-4-yl)cyclohexane-carboxamide] the same measures were 1.9 nM and 1660 nM.
For `N#CC1(NC(=O)[C@@H]2CCCC[C@H]2c2nc(-c3ccc(Cl)cn3)sc2-c2ccc(N3CCS(=O)(=O)CC3)cc2)CC1` [Example 41, (1R,2R)-2-(2-(5-chloropyridin-2-yl)-5-(4-(1,1-dioxidothiomorpho-lino)phenyl)thiazol-4-yl)-N-(1-cyanocyclopropyl) cyclohexanecarbox-amide] the same measures were 1.2 nM and 945 nM.
Turning to `CC(C)(CO)c1nc([C@@H]2CCCC[C@H]2C(=O)NC2(C#N)CC2)c(-c2ccc(N3CCS(=O)(=O)CC3)cc2)s1` [Example 224, (1R,2R)-N-(1-cyanocyclopropyl)-2-(5-(4-(1,1-dioxidothiomorpho-lino)phenyl)-2-(1-hydroxy-2-methylpropan-2-yl)thiazol-4-yl)cyclohexane-carboxamide], the IC50 was 3.3 nM on human cathepsin K and at least 10000 nM on human cathepsin F.
Take `CS(=O)(=O)c1ccc(-c2sc(-c3cncc(F)c3)nc2[C@@H]2CCCC[C@H]2C(=O)NC2(C#N)CC2)cc1` [Example 125, (1R,2R)-N-(1-cyanocyclopropyl)-2-(2-(5-fluoropyridin-3-yl)-5-(4-(methylsulfonyl)phenyl)thiazol-4-yl)cyclohexane-carboxamide]: the IC50 was determined as 7.5 nM on human cathepsin K and 310 nM on human cathepsin F.
For `CN=S1(=O)CCN(c2ccc(-c3oc(C(C)(C)C)nc3[C@@H]3CC[C@H](F)C[C@H]3C(=O)NC3(C#N)CC3)cc2)CC1` [Example 14, (1R,2R,5S)-2-(2-(tert-Butyl)-5-(4-(1-(methylimino)-1-oxidothiomorpholino)phenyl)oxazol-4-yl)-N-(1-cyanocyclopropyl)-5-fluorocyclohexanecarboxamide] the same measures were 5.2 nM and at least 10000 nM.
The matching figures for `COc1cncc(F)c1-c1nc([C@@H]2CCCC[C@H]2C(=O)NC2(C#N)CC2)c(-c2ccc(N3CCS(=O)(=O)CC3)cc2)s1` [Example 97, (1R,2R)-N-(1-cyanocyclopropyl)-2-(5-(4-(1,1-dioxidothiomorpho-lino)phenyl)-2-(3-fluoro-5-methoxypyridin-4-yl)thiazol-4-yl)cyclohexane-carboxamide]: 2.8 nM and 3080 nM.
With `Cc1ccc(-c2nc([C@@H]3CCCC[C@H]3C(=O)NC3(C#N)CC3)c(-c3ccc(N4CCS(=O)(=O)CC4)cc3)s2)nn1` [Example 83, (1R,2R)-N-(1-cyanocyclopropyl)-2-(5-(4-(1,1-dioxidothiomorpho-lino)phenyl)-2-(6-methylpyridazin-3-yl)thiazol-4-yl)cyclohexane-carboxamide], the IC50 at human cathepsin K turned out to be 1.4 nM; at human cathepsin F, 1110 nM.
